From PubChem BioAssay (NCI)
Several values for one entry are separate records, joined by “and”; a condition that tells them apart may be missing. Equal entries are not always repeated.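 Compound exposure: 48 hours, 5 concentrations, 96-well plates. Abbreviation: GI50, concentration required for 50% inhibition of growth. TGI marks complete inhibition of growth.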

Assays:
Assay in all cases: NCI anticancer screen, dose series, 48 h
A549 NSCLC = test system: A549 NSCLC
DMS 273 small cell lung = test system: DMS 273 small cell lung
HCT-15 colon = test system: HCT-15 colon
LXFL 529 NSCLC = test system: LXFL 529 NSCLC
OVCAR-3 ovarian = test system: OVCAR-3 ovarian
SK-MEL-28 melanoma = test system: SK-MEL-28 melanoma
SN12C renal = test system: SN12C renal
SNB-19 CNS = test system: SNB-19 CNS
U251 CNS = test system: U251 CNS
MDA-MB-231 breast = test system: MDA-MB-231 breast

Row | Structure (SMILES) | TGI (A549 NSCLC) | TGI (DMS 273 small cell lung) | TGI (HCT-15 colon) | TGI (LXFL 529 NSCLC) | TGI (OVCAR-3 ovarian) | TGI (SK-MEL-28 melanoma) | TGI (SN12C renal) | TGI (SNB-19 CNS) | TGI (U251 CNS) | GI50 (A549 NSCLC) | TGI (MDA-MB-231 breast) | GI50 (OVCAR-3 ovarian) | GI50 (SK-MEL-28 melanoma) | GI50 (SN12C renal) | GI50 (SNB-19 CNS) | GI50 (DMS 273 small cell lung) | GI50 (LXFL 529 NSCLC) | GI50 (MDA-MB-231 breast) | GI50 (HCT-15 colon) | GI50 (U251 CNS)
1 | O=C(O)C(CP(=O)(O)O)=C(Cl)Cl | > 100 µM | > 100 µM | > 100 µM | > 100 µM | > 100 µM | > 100 µM | > 100 µM | > 100 µM | > 100 µM |  |  |  |  |  |  |  |  |  |  | 
2 | COC(=O)/C=C1/CCC2[C@@H](C(=O)CC3[C@]2(C)CCC[C@@]3(C)C(=O)OC)C1C (some centres not stated) | 37.7 µM | 29.8 µM | 35.9 µM | 20.8 µM | 20.4 µM | 26.8 µM | 40.6 µM | 33.4 µM | 29.5 µM |  |  |  |  |  |  |  |  |  |  | 
3 | Cc1ccc(NC(=O)C(=O)C2C(=O)N(c3ccccc3)N=C2N)cc1C (configuration not stated) | > 100 µM | > 100 µM | > 100 µM | > 100 µM | > 100 µM | > 100 µM | > 100 µM | > 100 µM | > 100 µM |  |  |  |  |  |  |  |  |  |  | 
4 | COc1ccc2c(=O)c(C)c(-c3ccccc3)oc2c1CN(C)C | > 100 µM | > 100 µM | > 100 µM | > 100 µM | > 100 µM | > 100 µM | > 100 µM | > 100 µM | > 100 µM |  |  |  |  |  |  |  |  |  |  | 
5 | Cc1cc(O)cc2oc(=O)c3c(O)cc(O)cc3c12 | 86 µM | 58.2 µM | 45.4 µM | > 100 µM | 58.4 µM | > 100 µM | > 100 µM | 76 µM | > 100 µM |  |  |  |  |  |  |  |  |  |  | 
6 | CCOC(=O)/C(O)=C(/c1n[nH]c(=O)c2ccccc12)[N+](=O)[O-] | > 100 µM | > 100 µM | > 100 µM | > 100 µM | > 100 µM | > 100 µM | > 100 µM | > 100 µM | > 100 µM |  |  |  |  |  |  |  |  |  |  | 
7 | Cc1[nH]c2ccccc2c1C1Cc2ccccc2N1C(=O)/C=C/C=C/c1ccccc1 (configuration not stated) | > 100 µM | > 100 µM | > 100 µM | > 100 µM | > 100 µM | > 100 µM | > 100 µM | > 100 µM | > 100 µM |  |  |  |  |  |  |  |  |  |  | 
8 | COC(=O)NC1C(C)OC(OC2C/C=C(/C)C3C=CC4C(OC5CC(OC6CC(O)C(OC7CC(O)C(OC)C(C)O7)C(C)O6)C(O)C(C)O5)C(C)CC(C)C4C3(C)/C(O)=C3\C(=O)OC4(CC(C)C(CO)=CC4/C=C\2C)C3=O)CC1(C)[N+](=O)[O-] (configuration not stated) | 50 µM and 58.5 µM | 28.9 µM | 50 µM and 40.8 µM | 9.19 µM | 21 µM and 19.4 µM | 16.6 µM and 36 µM | 29.1 µM and 40 µM | 50 µM and 52.4 µM | 32.2 µM and 27.6 µM | 25.7 µM | 36 µM | 9.64 µM | 9 µM | 9.65 µM | 15.9 µM |  |  |  |  | 
9 | CCCCCCCCCCCCCC(=O)O[C@H]1CC[C@H](NC(=O)[C@H](OC)[C@H](O)[C@@H](O)[C@H](O)/C=C/C(C)C)C(=O)NC1 | 7.34 µM and 13.8 µM | 0.0303 µM | 21.1 µM and 90.7 µM | 7.26 µM | 10.5 µM and 17.9 µM | 10.8 µM and 21.6 µM | 10.8 µM and 18.6 µM | 51.2 µM and 25.9 µM | 18.6 µM and 11 µM |  | 13.5 µM | 0.00435 µM |  |  |  | < 0.001 µM | 0.00512 µM | 0.00638 µM |  | 
10 | CN(C)CCNC(=O)c1cc2ccccc2c2nc3ccccc3nc12 | > 44.4 µM | > 100 µM | 3.24 µM | > 22.3 µM | 6.35 µM | 2.96 µM | 3.89 µM | 8.2 µM | 4.92 µM |  |  |  |  |  |  |  |  |  |  | 
11 | [O-]c1c2c(nn1-c1ccccc1)c1ccccc1c[n+]2Cc1ccccc1 | > 100 µM | > 100 µM | > 100 µM | > 100 µM | > 100 µM | > 100 µM | > 100 µM | > 100 µM | > 100 µM |  |  |  |  |  |  |  |  |  |  | 
12 | CCC(C)(C)C(=O)O[C@H]1C[C@@H](C)C=C2C=C[C@H](C)[C@H](CC[C@@H]3C[C@@H](O)CC(=O)O3)[C@H]21 | 20.4 µM and 18.8 µM | > 30 µM | 19 µM and > 30 µM | > 30 µM | 21.4 µM and > 30 µM | 18.8 µM and > 30 µM | 16.5 µM and > 30 µM | 19.9 µM | 5.44 µM and > 30 µM | 6.79 µM | 0.732 µM | 8.77 µM | 5.05 µM | 0.949 µM | 3.13 µM |  |  | 0.224 µM | 2.15 µM | 0.371 µM
13 | O=S(=O)(/C=C/c1ccc(Cl)cc1Cl)Cc1ccccc1CS(=O)(=O)/C=C/c1ccc(Cl)cc1Cl | > 100 µM | > 100 µM | > 100 µM | > 100 µM | > 100 µM | > 100 µM | > 100 µM | > 100 µM | > 100 µM |  |  |  |  |  |  |  |  |  |  | 
